From patent US20180267021A1, “METHODS AND DEVICES FOR ASSESSING CELL PROPERTIES UNDER CONTROLLED GAS ENVIRONMENTS” (Carnegie Mellon University, priority 2014, published 2018)
“Also recorded” adds a separate entry of the source.

Legend:
[1] = test system: sickle RBCs; assay: Microfluidic hypoxia assay: anti-sickling effect of Aes-103 on sickle RBCs incubated in vitro; assay type: cell-based, human
Protocol: (§1) Cell sickling was measured using a double-layer device with a cell channel (5 μm high), a gas channel (100 μm high) and an in-between PDMS film 150 μm in thickness (FIG. 1A). The O2 concentration was controlled by exchanging gas flow in the channel through the PDMS membrane that is gas-permeable (33). […] Sickle RBCs typically form spiky edges and dark coarse texture due to intracellular HbS polymerization, the visual identification of which was enhanced by a band-pass filter (FIG. 1B). Thus the sickled cells were defined as those obviously distorted from their original shape and texture under Oxy state (O2 concentration 20%) to the DeOxy state (O2 concentration <5%). […] The delay time of cell unsickling was defined as the time elapsed between the initiation of reoxygenation (ReOxy) and the point when the RBC fully recovered its pre-sickle morphology in a visibly identifiable manner.
(§2) For the Aes-103 testing, blood samples from 3 on-HU and 3 off-HU patients were incubated with Aes-103 at different concentrations (0.5, 1, 2, and 5 mM) for one hour at 37° C. before the in vitro sickling test. […] The fractionation gradient was built up with four layers of 2.5 ml Optiprep-DPBS medium of densities of 1.081, 1.091, 1.100 and 1.111 g/ml, respectively. 1 ml blood sample was washed twice with Phosphate Buffered Saline (PBS) at 2000 rpm for 5 minutes at 21° C. and diluted into 70-80% hematocrit. […] The four fractions, Density 1 through Density 4 have mean densities of 1.086±0.005 g/ml, 1.095±0.005 g/ml, 1.105±0.005 g/ml, and >1.111 g/ml, respectively. Fractionated sickle RBCs were then suspended with RPMI-1640 containing 1% w/v Bovine Serum Albumin (BSA) (Sigma-Aldrich, St Louis, Mo.) and stored at 4° C. until shortly before use to avoid metabolic depletion.
(§3) As Ru(dpp)3C12 is water insoluble, it was dissolved in Acetone-RPMI (volume ratio of 1:2) at 0.8 mg/ml and injected into the cell channel. […] Short-term and long-term hypoxia conditions held the durations of DeOxy state (O2 concentration<5%) about 25 s and 220 s, respectively.

[2] = test system: sickle RBCs; assay: Kinetics of cell sickling of density-fractionated sickle RBC populations, on-HU vs off-HU; assay type: cell-based, human
Source text: In order to quantify the effects of cell density on the kinetics of cell sickling and unsickling, we categorized sickle RBCs into four populations with average cell densities of 1.086±0.005 g/ml (Density 1), 1.095±0.005 g/ml (Density 2), 1.105±0.005 g/ml (Density 3), and >1.111 g/ml (Density 4) for 20 SCD samples from 6 off-HU patients and 14 on-HU patients. The majority of sickle RBCs fell within Density 2 and Density 3 (FIG. 8A). We noticed a significant difference in sickling growth curve among different density populations of individual blood samples under both short-term and long-term DeOxy states (FIGS. 8B and C). Results of delay time of cell sickling and sickled fraction were examined along with cell density and the patient's HU status. Delay time of cell sickling decreased with cell density (FIG. 5A), which can be rationalized by the hydration state of the cells (39, 40).
as §2, §3

[3] = test system: sickle RBCs; assay: Individual sickle RBC rheology through micro-gates under transient hypoxia, on-HU vs off-HU
[4] = test system: sickle RBCs; assay: Kinetics of cell sickling and unsickling under transient hypoxia, patient samples on-HU vs off-HU; assay type: cell-based, human
Protocol: as §1
Kinetics of individual cell sickling and unsickling under transient hypoxia conditions was quantified by the delay time and the maximum sickled fraction on 25 SCD patient samples: 7 patients without HU therapy (off-HU) and 18 patients with HU therapy (on-HU) (see patient's HU status in Materials and Methods Text). Short-term and a long-term hypoxia conditions were created to simulate normal and retarded transit scenarios in microvasculature (FIGS. 2A-B). Representative cell sickling profiles upon changes in O2 concentration are shown (FIG. 2C). Compared to the relatively long sickling process (>100 s for sickled fraction rising from zero to a saturated, maximum level), the unsickling process after ReOxy was much faster (<20 s for sickled fraction reducing from the saturated level to zero), disregarding the small discrepancy in the DeOxy and ReOxy rates (<20 s). This observation applied to all patient sample.
as §2

## O=Cc1ccc(CO)o1 [Aes-103, 5-hydroxymethylfurfural]
[1]; 2 mM Aes-103 incubation, each patient sample
  change in cell sickling from baseline: significant decrease in cell sickling from its baseline
[1]; 5 mM Aes-103, one hour at 37° C., hypoxia 2% O2, 3 on-HU and 3 off-HU patient samples
  maximum sickled fraction: < 5%
[1]; 5 mM Aes-103, one patient sample
  sickled fraction of one patient sample: nearly zero
[1]; Aes-103 0.5-5 mM, long-term hypoxia
  dependence of sickled fraction on Aes-103 concentration (anti-sickling effect): strong correlation with the drug concentration; also recorded: decreased with drug concentration; also recorded: dosage-dependent manner

## NC(=O)NO [HU, hydroxyurea]
[2]; Densities 1 through 3, long-term DeOxy
  delay time for unsickling, on-HU vs off-HU: did not vary significantly
[2]; Densities 3 and 4, p=0.01 and p=0.06
  delay time of cell sickling with HU therapy, Densities 3 and 4: marked extension
[2]; density-fractionated populations, short-term DeOxy, p<0.02
  mean delay time of cell sickling, on-HU vs off-HU cases: statistically higher
[2]; short-term hypoxia, particularly Densities 3 and 4 (p=0.01 and p=0.001)
  sickled fraction with HU therapy: significantly suppressed
[3]; 7 on-HU and 7 off-HU patient samples, DeOxy state, p=0.04
  capillary obstruction ratio, on-HU vs off-HU: significantly lower
[3]; individual RBCs through periodic micro-gates
  cell velocity, on-HU vs off-HU: lower than those for the off-HU group
[4]; 5% sickled fraction, p<0.01
  delay time of sickling, on-HU group compared with off-HU group: significantly longer
[4]; 10% sickled fraction, six cases, suggesting beneficial effect of HU therapy
  delay time of cell sickling, six cases: > 60 s
[4]; long-term DeOxy state, p<0.02
  influence of HU therapy on delay time of cell sickling to saturated sickled fraction: statistically significant
[4]; long-term DeOxy state, p=0.24
  delay time of cell unsickling, on-HU vs off-HU: no significant difference
[4]; short-term DeOxy state (O2 <5% for 25 s), all on-HU samples, significantly lower than off-HU (p=0.03)
  maximum sickled fraction: below 15%
